According to patent publication US20160115540A1, “PRODRUGS AND DRUGS” (Biogen MA Inc., priority 2013, published 2016):
Structures can show the parent of a compound that is named as a salt.

Test system: liver
Assay: Transcriptional profiling on Affymetrix GeneChips, single dose, naïve mice: liver
Format: in vivo, C57BL/6 mice
Settings: for Number of differentially expressed genes identified: Liver: Naïve, Single Dose, 100 mpk, vs Vehicle
Method: Treated mice were sacrificed at 2, 7, or 12 hours. Tissues (liver, spleen, kidney, jejunum, cortex, hippocampus, striatum and whole blood) were collected and analyzed by transcriptional profiling on mouse Affymetrix GeneChips.
Tissues (liver, spleen, kidney, jejunum, cortex, hippocampus, striatum and whole blood) were collected and analyzed by transcriptional profiling on mouse Affymetrix GeneChips.
Animals were exposed to CO2 and whole blood collected via cardiac puncture. Two 100 μl aliquots of whole blood were collected in 1.5 mL microcentrifuge tubes and snap frozen in liquid nitrogen. Peripheral (liver, spleen, kidney and jejunum) and CNS brain (cerebellum, hippocampus, striatum and cortex) tissues were harvested and snap frozen in liquid nitrogen, with special care taken to collect tissues of similar size and from the same location. All samples were stored at −80° C. until RNA extraction was conducted.
For RNA preparation, frozen tissues were placed in 2 mL RNAse-free 96-well blocks with 1.5 mL QIAzol Lysis Reagent (QIAgen) and a 3.2 mm stainless steel bead (BioSpec Products, Bartlesville, Okla.). Tissues were disrupted for four cycles of 45 seconds in a Mini-Beadbeater (Biospec Products). RNA was extracted in chloroform and the aqueous phase was mixed with an equal volume of 70% ethanol. Extracted RNA was applied to RNeasy 96 plates and purified by the spin method according to the manufacturer's protocol (RNeasy 96 Universal Tissue Protocol, QIAgen, Hilden Germany).
Automated sample amplifications and biotin labelings were carried out using the NuGEN Ovation RNA Amplification system V2 (Cat #3100), Ovation WB reagent (Cat #1300) and Encore Biotin module (Cat #4200) (NuGEN Technologies, Inc, San Carlos, Calif.) according to manufacturer's recommendations using an Arrayplex automated liquid handler (Beckman Coulter, Indianapolis, Ind.). Two micrograms of biotin labeled sscDNA probe were hybridized to Affymetrix GeneChip Affymetrix HT_MG-430_PM plate arrays with modified conditions as described in Allaire et al. Washing and staining of the hybridized arrays were completed as described in the GeneChip Expression analysis technical manual for HT plate arrays using the Genechip® Array Station (Affymetrix, Santa Clara, Calif.) with modifications as described in Allaire et al. The processed GeneChip® plate arrays were scanned using GeneTitan scanner (Affymetrix, Santa Clara, Calif.).
Affymetrix scans were subject to quality control (QC) measures. These tests included a visual inspection of the distribution of raw signal intensities and an assessment of RNA degradation, relative log expression (RLE), and normalized unsealed standard error (NUSE). All sample scans that passed these QC metrics were included in the analysis.
All CEL files were subjected to GC-content-based Robust Multi-array Average (GCRMA) normalization (version 2.20.0) (Irizarry R A, et al. Nucleic Acids Res 2003; 31:e15; Li C, et al. Genome Biol 2001; 2:[…]0032). Expression levels were log (base 2) transformed.
All calculations and analyses were carried out using R (version 2.11.1) and Bioconductor computational tools (Gentleman R. Springer Science+Business Media 2005).

[1] = liver, 100 mg/kg, 2 hr, vs matched vehicle controls

## COC(=O)/C=C/C(=O)O [MMF, monomethyl fumarate]
LIVER, 100MMF-vs-Veh, 2 h
  FC 1437867_PM_at (no gene symbol): 1.50
  FC 1444516_PM_at (no gene symbol): 2.19
  FC 1447411_PM_at (no gene symbol): 2.81
  FC 9130221J17Rik (1443159_PM_at): 1.57
  FC Abcc1 (1452233_PM_at): 1.86
  FC Akr1b8 (1448894_PM_at): 2.27
  FC Caprin1 (1448348_PM_at): −1.56
  FC Clec4d (1420804_PM_s_at): 2.05
  FC Csnk2a1 (1419038_PM_a_at): −1.62
  FC Figf (1438953_PM_at): 2.25
  FC Figf (1438954_PM_x_at): 1.79
  FC Fxr1 (1452247_PM_at): −1.53
  FC Gclc (1424296_PM_at): 1.72
  FC Gclc (1455959_PM_s_at): 1.64
  FC Hmox1 1448239_PM_at: 2.41
  FC Meis2 (1440091_PM_at): −1.67
  FC Pgd (1436771_PM_x_at): 1.61
  FC Pgd (1437380_PM_x_at): 1.65
  FC Ppfibp2 (1417801_PM_a_at): 2.55
  FC Prpf38b (1455016_PM_at): −1.53
  FC Srxn1 (1419942_PM_at): 1.68
  FC Srxn1 (1426875_PM_s_at): 1.63
  FC Srxn1 (1451680_PM_at): 1.55
LIVER, 100MMF-vs-Veh, 7 h
  FC 2010003K11Rik (1424626_PM_at): 2.20
  FC 4930588G05Rik (1430175_PM_at): −1.76
  FC Akr1b8 (1448894_PM_at): 1.75
  FC Bmp6 (1450759_PM_at): 1.65
  FC Cda (1427357_PM_at): 1.92
  FC Clec4n (1419627_PM_s_at): 2.40
  FC Erc2 (1434582_PM_at): −1.95
  FC Fzd8 (1445815_PM_at): −1.81
  FC G6pdx (1448354_PM_at): 1.61
  FC Marco (1449498_PM_at): 2.44
  FC Nqo1 (1423627_PM_at): 2.20
  FC Pir (1429001_PM_at): 1.50
  FC Srxn1 (1419942_PM_at): 1.52
  FC Srxn1 (1426875_PM_s_at): 1.53
  FC Srxn1 (1451680_PM_at): 1.58
LIVER, 100MMF-vs-Veh, 12 h
  FC 1810055G02Rik (1425921_PM_a_at): 1.86
  FC 4933433P14Rik (1431334_PM_a_at): 1.81
  FC Ablim1 (1453103_PM_at): −1.51
  FC Car3 (1460256_PM_at): −1.57
  FC Clmn (1439117_PM_at): −1.54
  FC Ctla2a (1448471_PM_a_at): 1.63
  FC Dnajc12 (1417441_PM_at): 2.53
  FC Fndc3b (1433833_PM_at): 1.66
  FC Gadd45b (1450971_PM_at): 1.50
  FC Gm3579 (1431214_PM_at): 2.74
  FC Hyou1 (1423290_PM_at): 1.82
  FC Hyou1 (1423291_PM_s_at): 1.52
  FC Lrrc59 (1416235_PM_at): 1.65
  FC Nme6 (1448574_PM_at): 1.57
  FC Ppapdc1b (1428154_PM_s_at): 1.87
  FC Ppm1k 1441988_PM_at: −1.56
Liver
  Number of genes, DMF Only / MMF Only: 34
2 h after last dosing
  Number of differentially expressed genes identified: Liver: 23
7 h after last dosing
  Number of differentially expressed genes identified: Liver: 15
12 h after last dosing
  Number of differentially expressed genes identified: Liver: 16
[1]
  Murine Liver DEGs: Abcc1 (1452233_PM_at): 1.86
  Murine Liver DEGs: Akr1b8 (1448894_PM_at): 2.27
  Murine Liver DEGs: Ampd3 (1422573_PM_at): 1.70
  Murine Liver DEGs: Caprin1 (1448348_PM_at): −1.56
  Murine Liver DEGs: Clec4d (1420804_PM_s_at): 2.05
  Murine Liver DEGs: Cmah (1447019_PM_at): −1.55
  Murine Liver DEGs: Csnk2a1 (1419038_PM_a_at): −1.62
  Murine Liver DEGs: Figf (1438953_PM_at): 2.25
  Murine Liver DEGs: Fxr1 (1452247_PM_at): −1.53
  Murine Liver DEGs: Gclc (1424296_PM_at): 1.72
  Murine Liver DEGs: Hmox1 (1448239_PM_at): 2.41
  Murine Liver DEGs: Meis2 (1440091_PM_at): −1.67
  Murine Liver DEGs: Mkln1 (1416734_PM_at): −1.69
  Murine Liver DEGs: Pgd (1436771_PM_x_at): 1.61
  Murine Liver DEGs: Ppfibp2 (1417801_PM_a_at): 2.55
  Murine Liver DEGs: Prpf38b (1455016_PM_at): −1.53
  Murine Liver DEGs: Ptprb (1453908_PM_at): −1.76
  Murine Liver DEGs: Ptprg (1456070_PM_at): −1.85
